Results on 4 compounds are retold here after PubChem BioAssay AID1259407 (Chemical Carcinogenesis Research Information System (CCRIS), 2018).

The source made the active and inactive calls. The rule behind the calls is not given here. Where a SMILES comes first, the peptide text is derived from it.

In this series the test system is CCRIS mutagenicity, Ames/micronucleus/aberration tests. Put plainly: CCRIS mutagenicity studies.

Turning to `CC(Cl)Cl`, the mutagenic call (End Point: IN VIVO CHROMOSOMAL ABERRATIONS, Test System: BONE MARROW, Species: MOUSE, Strain/Sex: SWISS-WEBSTER/MALE, Route: INTRAPERITONEAL) is “active; positive (structural changes)”; the mutagenic call (End Point: IN VIVO MICRONUCLEUS, Test System: BONE MARROW, Species: MOUSE, Strain/Sex: SWISS-WEBSTER/MALE, Route: INTRAPERITONEAL) was “active; positive (dose-dependent)”; the mutagenic call (Test System: AMES SALMONELLA TYPHIMURIUM, Strain/Indicator: TA97, Metabolic Activation: HAMSTER, LIVER, S-9, AROCLOR 1254 (10%), Method: PREINCUBATION) was “inactive; negative”; the mutagenic call (Test System: AMES SALMONELLA TYPHIMURIUM, Strain/Indicator: TA97, Metabolic Activation: HAMSTER, LIVER, S-9, AROCLOR 1254 (30%), Method: PREINCUBATION) was “inactive; negative”; the mutagenic call (Test System: AMES SALMONELLA TYPHIMURIUM, Strain/Indicator: TA97, Metabolic Activation: NONE, Method: PREINCUBATION) was “inactive; negative”; the mutagenic call (Test System: AMES SALMONELLA TYPHIMURIUM, Strain/Indicator: TA97, Metabolic Activation: RAT, LIVER, S-9, AROCLOR 1254 (10%), Method: PREINCUBATION) was “inactive; negative”. For the same compound, the mutagenic call runs as follows: (Test System: AMES SALMONELLA TYPHIMURIUM, Strain/Indicator: TA97, Metabolic Activation: RAT, LIVER, S-9, AROCLOR 1254 (30%), Method: PREINCUBATION) “inactive; negative”; (Test System: AMES SALMONELLA TYPHIMURIUM, Strain/Indicator: TA98, Metabolic Activation: HAMSTER, LIVER, S-9, AROCLOR 1254 (10%), Method: PREINCUBATION) “inactive; negative”; (Test System: AMES SALMONELLA TYPHIMURIUM, Strain/Indicator: TA98, Metabolic Activation: HAMSTER, LIVER, S-9, AROCLOR 1254 (30%), Method: PREINCUBATION) “inactive; negative”; (Test System: AMES SALMONELLA TYPHIMURIUM, Strain/Indicator: TA98, Metabolic Activation: NONE, Method: PREINCUBATION) “inactive; negative”; (Test System: AMES SALMONELLA TYPHIMURIUM, Strain/Indicator: TA98, Metabolic Activation: RAT, LIVER, S-9, AROCLOR 1254 (10%), Method: PREINCUBATION) “inactive; negative”; (Test System: AMES SALMONELLA TYPHIMURIUM, Strain/Indicator: TA98, Metabolic Activation: RAT, LIVER, S-9, AROCLOR 1254 (30%), Method: PREINCUBATION) “inactive; negative”. In addition, the mutagenic call is “inactive; negative” (Test System: AMES SALMONELLA TYPHIMURIUM, Strain/Indicator: TA100, Metabolic Activation: HAMSTER, LIVER, S-9, AROCLOR 1254 (10%), Method: PREINCUBATION); “inactive; negative” (Test System: AMES SALMONELLA TYPHIMURIUM, Strain/Indicator: TA100, Metabolic Activation: HAMSTER, LIVER, S-9, AROCLOR 1254 (30%), Method: PREINCUBATION); “inactive; negative” (Test System: AMES SALMONELLA TYPHIMURIUM, Strain/Indicator: TA100, Metabolic Activation: NONE, Method: PREINCUBATION); “inactive; negative” (Test System: AMES SALMONELLA TYPHIMURIUM, Strain/Indicator: TA100, Metabolic Activation: RAT, LIVER, S-9, AROCLOR 1254 (10%), Method: PREINCUBATION); “inactive; negative” (Test System: AMES SALMONELLA TYPHIMURIUM, Strain/Indicator: TA100, Metabolic Activation: RAT, LIVER, S-9, AROCLOR 1254 (30%), Method: PREINCUBATION); “inactive; negative” (Test System: AMES SALMONELLA TYPHIMURIUM, Strain/Indicator: TA1535, Metabolic Activation: HAMSTER, LIVER, S-9, AROCLOR 1254 (10%), Method: PREINCUBATION). The mutagenic call is “inactive; negative” (Test System: AMES SALMONELLA TYPHIMURIUM, Strain/Indicator: TA1535, Metabolic Activation: HAMSTER, LIVER, S-9, AROCLOR 1254 (30%), Method: PREINCUBATION); “inactive; negative” (Test System: AMES SALMONELLA TYPHIMURIUM, Strain/Indicator: TA1535, Metabolic Activation: NONE, Method: PREINCUBATION); “inactive; negative” (Test System: AMES SALMONELLA TYPHIMURIUM, Strain/Indicator: TA1535, Metabolic Activation: RAT, LIVER, S-9, AROCLOR 1254 (10%), Method: PREINCUBATION); “inactive; negative” (Test System: AMES SALMONELLA TYPHIMURIUM, Strain/Indicator: TA1535, Metabolic Activation: RAT, LIVER, S-9, AROCLOR 1254 (30%), Method: PREINCUBATION); “inactive; negative” (Test System: AMES SALMONELLA TYPHIMURIUM, Strain/Indicator: TA1537, Metabolic Activation: HAMSTER, LIVER, S-9, AROCLOR 1254 (30%), Method: PREINCUBATION); “inactive; negative” (Test System: AMES SALMONELLA TYPHIMURIUM, Strain/Indicator: TA1537, Metabolic Activation: NONE, Method: PREINCUBATION). Also, the mutagenic call (Test System: AMES SALMONELLA TYPHIMURIUM, Strain/Indicator: TA1537, Metabolic Activation: RAT, LIVER, S-9, AROCLOR 1254 (30%), Method: PREINCUBATION) is “inactive; negative”.

On to `ClCc1ccc2ccc3cc4ccccc4c4ccc1c2c34`, for which the mutagenic call (Test System: AMES SALMONELLA TYPHIMURIUM, Strain/Indicator: TA98, Metabolic Activation: NONE, Method: STANDARD PLATE) was “inactive; negative” and the mutagenic call (Test System: AMES SALMONELLA TYPHIMURIUM, Strain/Indicator: TA100, Metabolic Activation: NONE, Method: STANDARD PLATE) is “inactive; negative”.

On to `COC(=O)[C@H](Cc1ccccc1)NC(=O)[C@@H](N)CC(=O)O` (H-Asp-Phe-OMe), for which the mutagenic call is “inactive; negative” (End Point: In vivo micronucleus, Test System: Bone marrow polychromatic erythrocytes, Species: Rat, Strain/Sex: F344/N, Male, Route: Oral); “inactive; negative” (End Point: In vivo micronucleus, Test System: Peripheral blood normochromatic erythrocytes, Species: Mouse, Strain/Sex: B6.129-Cdkn2atm1Rdp (N2) Cdkn2a deficient/Female, Route: Oral); “inactive; negative” (End Point: In vivo micronucleus, Test System: Peripheral blood normochromatic erythrocytes, Species: Mouse, Strain/Sex: B6.129-Cdkn2atm1Rdp (N2) Cdkn2a deficient/Male, Route: Oral); “active; positive (significant trend test and significant (p=0.0004) increase in frequenc” (End Point: In vivo micronucleus, Test System: Peripheral blood normochromatic erythrocytes, Species: Mouse, Strain/Sex: B6.129-Trp53tm1Brd (N5) p53 Haploinsufficient/Female, Route: Oral); “inactive; negative” (End Point: In vivo micronucleus, Test System: Peripheral blood normochromatic erythrocytes, Species: Mouse, Strain/Sex: B6.129-Trp53tm1Brd (N5) p53 Haploinsufficient/Male, Route: Oral); “inactive; negative” (End Point: In vivo micronucleus, Test System: Peripheral blood normochromatic erythrocytes, Species: Mouse, Strain/Sex: FVB Tg.Ac hemizygous/Female, Route: Oral). Moreover, the mutagenic call (End Point: In vivo micronucleus, Test System: Peripheral blood normochromatic erythrocytes, Species: Mouse, Strain/Sex: FVB Tg.Ac hemizygous/Male, Route: Oral) was “inactive; negative”; the mutagenic call (Test System: Ames Salmonella typhimurium, Strain/Indicator: TA97, Metabolic Activation: Hamster, liver, S-9, Aroclor 1254, 10 and 30%, Method: Preincubation) was “inactive; negative”; the mutagenic call (Test System: Ames Salmonella typhimurium, Strain/Indicator: TA97, Metabolic Activation: None, Method: Preincubation) is “inactive; negative”; the mutagenic call (Test System: Ames Salmonella typhimurium, Strain/Indicator: TA97, Metabolic Activation: Rat, liver, S-9, Aroclor 1254 (10% or 30%), Method: Preincubation) is “active; positive in two trials with 30% s-9”; the mutagenic call (Test System: Ames Salmonella typhimurium, Strain/Indicator: TA98, Metabolic Activation: Hamster, liver, S-9, Aroclor 1254, 10 and 30%, Method: Preincubation) is “inactive; negative”; the mutagenic call (Test System: Ames Salmonella typhimurium, Strain/Indicator: TA98, Metabolic Activation: None, Method: Preincubation) was “inactive; negative”. The mutagenic call by setting is: (Test System: Ames Salmonella typhimurium, Strain/Indicator: TA98, Metabolic Activation: Rat, liver, S-9, Aroclor 1254, 10 and 30%, Method: Preincubation) “inactive; negative”; (Test System: Ames Salmonella typhimurium, Strain/Indicator: TA100, Metabolic Activation: Hamster, liver, S-9, Aroclor 1254, 10 and 30%, Method: Preincubation) “inactive; negative”; (Test System: Ames Salmonella typhimurium, Strain/Indicator: TA100, Metabolic Activation: None, Method: Preincubation) “inactive; negative”; (Test System: Ames Salmonella typhimurium, Strain/Indicator: TA100, Metabolic Activation: Rat, liver, S-9, Aroclor 1254, 10 and 30%, Method: Preincubation) “inactive; negative”; (Test System: Ames Salmonella typhimurium, Strain/Indicator: TA1535, Metabolic Activation: Hamster, Liver, S-9, Aroclor 1254, 10 and 30%, Method: Preincubation) “inactive; negative”; (Test System: Ames Salmonella typhimurium, Strain/Indicator: TA1535, Metabolic Activation: None, Method: Preincubation) “inactive; negative”. Moreover, the mutagenic call is, setting by setting: (Test System: Ames Salmonella typhimurium, Strain/Indicator: TA1535, Metabolic Activation: Rat, liver, S-9, Aroclor 1254, 10 and 30%, Method: Preincubation) “inactive; negative”; (Test System: Ames Salmonella typhimurium, Strain/Indicator: TA1537, Metabolic Activation: Rat, liver, S-9, Aroclor 1254, 30%, Method: Preincubation) “inactive; negative”.

Regarding `Cc1ccc2ccc3cc4ccccc4c4ccc1c2c34`, the mutagenic call is, setting by setting: (Test System: AMES SALMONELLA TYPHIMURIUM, Strain/Indicator: TA100, Metabolic Activation: RAT, INTACT HEPATOCYTES, AROCLOR 1254, Method: PREINCUBATION) “active; positive”; (Test System: AMES SALMONELLA TYPHIMURIUM, Strain/Indicator: TA100, Metabolic Activation: RAT, NADPH-FORTIFIED HOMOGENIZED HEPATOCYTES, AROCLOR 1254, Method: PREINCUBATION) “active; positive”.
